Test results published in ChEMBL document CHEMBL1201862, “PubChem BioAssay data set” (2004).
The source made the active and inactive calls. Cut-off read from the data, not from the text of the source, for most assays here: actives have a measured EC50 and inactives only a lower limit.

Key:
[1] = Luminescence Cell-Based Dose Confirmation HTS to Identify Inhibitors of Platelet Dense Granule Release. [Related pubchem assays: 1663 (Primary HTS), 1678 (Summary of Project)]; assay type: functional
[2] = biological target: Luciferin 4-monooxygenase (Photinus pyralis, UniProt P08659); assay: inhibition of purified Photinus pyralis luciferase – biochemical, luminescence, dose response (AID 1891)
BJ [3] = assay: BJ-TERT fibroblast viability loss – cell-based, RAS-independent, luminescence, dose response (AID 1933); assay type: functional; conditions: Homo sapiens
BJ [4] = assay: BJ-TERT-LT-ST fibroblast viability loss – cell-based, RAS-independent, luminescence, dose response (AID 1935); assay type: functional; conditions: Homo sapiens;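 note: BJ fibroblasts immortalized with TERT plus LT and ST oncogenes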
INS1 = assay: INS-1E survival protection against cytokine death – cell-based, luminescence, retest, dose response (AID 449756); assay type: functional; conditions: Rattus norvegicus;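 note: cell death triggered by IL-1 beta plus TNF-alpha plus IFN-gamma mixture; protective hits raise ATP signal compared with cytokine alone wells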
[5] = DRD fibroblast viability loss – cell-based, non-viral oncogenic, luminescence, dose response (AID 1934); assay type: functional; conditions: Homo sapiens
BJ [6] = assay: cells; assay type: functional, cell-based; conditions: Homo sapiens
[7] = biological target: T1, Calpain-2 catalytic subunit (Sus scrofa, UniProt P43367); assay: m-calpain protease blockers, concentration series – biochemical, fluorogenic peptide substrate, dose response (AID 1420); assay type: functional
T1 sequence (P43367 whole entry): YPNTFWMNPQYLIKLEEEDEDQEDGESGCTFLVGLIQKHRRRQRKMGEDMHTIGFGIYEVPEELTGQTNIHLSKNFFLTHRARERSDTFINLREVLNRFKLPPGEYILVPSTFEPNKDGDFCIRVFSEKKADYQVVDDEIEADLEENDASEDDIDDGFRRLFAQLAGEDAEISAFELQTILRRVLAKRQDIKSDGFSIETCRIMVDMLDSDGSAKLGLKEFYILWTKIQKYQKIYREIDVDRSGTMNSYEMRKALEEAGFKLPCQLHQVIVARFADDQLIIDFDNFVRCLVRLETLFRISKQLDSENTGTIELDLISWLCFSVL

[8] = biological target: T2, RNA-binding protein pos-1 (Caenorhabditis elegans, UniProt G5EF15); assay: disruptors of C. elegans POS-1 RNA interaction – biochemical, fluorescence polarization, dose response (AID 1964);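 note: purified POS-1 fused to maltose binding protein made in E. coli; potency of compounds blocking POS-1 binding to fluorescent RNA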
T2 sequence (G5EF15 whole entry): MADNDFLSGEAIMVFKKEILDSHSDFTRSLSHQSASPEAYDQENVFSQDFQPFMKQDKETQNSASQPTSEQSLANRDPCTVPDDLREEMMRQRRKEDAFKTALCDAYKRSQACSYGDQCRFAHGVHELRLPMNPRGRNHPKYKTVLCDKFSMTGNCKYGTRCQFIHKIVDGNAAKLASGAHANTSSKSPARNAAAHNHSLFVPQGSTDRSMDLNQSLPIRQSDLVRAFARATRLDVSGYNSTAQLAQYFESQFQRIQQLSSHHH

Cytochrome P450 2C9 = Cytochrome P450 2C9 (Homo sapiens, UniProt P11712)
[9] = biological target: T3, Zinc finger protein mex-5 (Caenorhabditis elegans, UniProt Q9XUB2); assay: potency of MEX-5 RNA-binding blockers – biochemical, C. elegans, fluorescence polarization, dose response (AID 1960)
T3 sequence (Q9XUB2 whole entry): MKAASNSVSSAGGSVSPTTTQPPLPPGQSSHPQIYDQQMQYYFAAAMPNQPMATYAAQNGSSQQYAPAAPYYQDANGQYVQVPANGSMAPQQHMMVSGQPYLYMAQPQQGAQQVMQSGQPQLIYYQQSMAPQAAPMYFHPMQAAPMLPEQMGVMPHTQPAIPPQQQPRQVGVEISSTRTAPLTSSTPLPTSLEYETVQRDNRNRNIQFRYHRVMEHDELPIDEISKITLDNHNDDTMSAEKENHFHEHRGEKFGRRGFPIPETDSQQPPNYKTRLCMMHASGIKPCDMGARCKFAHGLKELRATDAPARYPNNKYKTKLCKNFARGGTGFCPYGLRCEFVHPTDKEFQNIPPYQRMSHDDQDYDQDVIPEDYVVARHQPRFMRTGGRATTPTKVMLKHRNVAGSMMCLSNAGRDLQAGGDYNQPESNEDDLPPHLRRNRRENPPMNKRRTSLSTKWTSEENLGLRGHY

Cytochrome P450 2D6 = Cytochrome P450 2D6 (Homo sapiens, UniProt P10635);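 note: CYP2D6 member of a cytochrome P450 panel assay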
[10] = microbe, parasite or virus in culture; assay type: functional; conditions: Mycobacterium tuberculosis
H9c2 = assay: cells; assay type: functional, cell-based; conditions: Rattus norvegicus, H9c2, Myocardium;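 note: confirmatory concentration-response retest of ultra-high-throughput screening hits for modulation of myocardial damage; cell death induced by hydrogen peroxide oxidative stress; compound pretreatment for 60 min then peroxide exposure for 2 h; potency is for protecting the cells against peroxide damage rather than for killing them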
[11] = biological target: FAD-linked sulfhydryl oxidase ALR (Homo sapiens, UniProt P55789); assay: ALR-catalysed DTT oxidation blockers – biochemical, H2O2 detection, luminescence, cherry-pick, dose response (AID 493248)
[12] = NIH-3T3 fibroblast cytotoxicity, dose response, cytotoxicity control, cell-based, fluorescence, Alamar Blue, secondary assay (AID 2327); assay type: functional;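 note: NIH-3T3 mouse fibroblasts cultured with fluconazole at 8 µg/mL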
Cytochrome P450 3A4 = Cytochrome P450 3A4 (Homo sapiens, UniProt P08684);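 note: CYP3A4 tested as one member of a cytochrome P450 panel screen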
[13] = fluconazole-exposed Candida albicans growth modulators – fluorescence, retest, confirmation (AID 2467); assay type: functional, cell-based
[14] = NIH3T3 cell viability loss – ATP luminescence, mouse fibroblasts, counter-screen, dose response (AID 2010); assay type: functional, cell-based;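 note: cells exposed to compound for about 90 hours before reading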
[15] = Trypanosoma cruzi growth suppression in host cells – NIH3T3 host cells, beta-gal luminescence, confirmation (AID 2044); assay type: functional, cell-based;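 note: intracellular parasites grown in NIH/3T3 mouse fibroblasts as host cells; luminescent beta-galactosidase reporter signal from transgenic T. cruzi replicating inside host cells; inhibitors lower the luminescence signal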
[16] = viability of uninfected HEp-2 cells – cell-based, HTS, cytotoxicity control for RSV inhibitor project, dose response (AID 2410); assay type: functional; conditions: human respiratory syncytial virus

Chain of FAD-linked sulfhydryl oxidase ALR (P55789 whole entry): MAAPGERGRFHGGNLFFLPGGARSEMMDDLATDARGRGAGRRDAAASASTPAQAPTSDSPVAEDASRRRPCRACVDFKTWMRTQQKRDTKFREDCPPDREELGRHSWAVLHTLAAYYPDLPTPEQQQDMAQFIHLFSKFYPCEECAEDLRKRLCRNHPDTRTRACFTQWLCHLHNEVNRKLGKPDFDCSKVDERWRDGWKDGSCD
Chain of Cytochrome P450 2D6 (P10635 whole entry): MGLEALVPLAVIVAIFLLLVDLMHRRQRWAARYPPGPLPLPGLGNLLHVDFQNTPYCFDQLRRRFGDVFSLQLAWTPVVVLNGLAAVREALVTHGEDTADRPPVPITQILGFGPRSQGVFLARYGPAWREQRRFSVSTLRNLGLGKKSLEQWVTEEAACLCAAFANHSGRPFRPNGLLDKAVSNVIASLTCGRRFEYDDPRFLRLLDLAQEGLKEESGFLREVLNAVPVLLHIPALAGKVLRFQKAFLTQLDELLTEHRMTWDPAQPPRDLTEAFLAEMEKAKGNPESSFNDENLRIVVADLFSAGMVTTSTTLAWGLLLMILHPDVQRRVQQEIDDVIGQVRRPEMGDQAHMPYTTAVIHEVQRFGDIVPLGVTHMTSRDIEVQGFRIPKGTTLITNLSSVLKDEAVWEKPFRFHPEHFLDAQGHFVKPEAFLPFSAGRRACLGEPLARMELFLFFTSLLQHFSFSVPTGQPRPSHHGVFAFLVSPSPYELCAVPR
Chain of Luciferin 4-monooxygenase (P08659 whole entry): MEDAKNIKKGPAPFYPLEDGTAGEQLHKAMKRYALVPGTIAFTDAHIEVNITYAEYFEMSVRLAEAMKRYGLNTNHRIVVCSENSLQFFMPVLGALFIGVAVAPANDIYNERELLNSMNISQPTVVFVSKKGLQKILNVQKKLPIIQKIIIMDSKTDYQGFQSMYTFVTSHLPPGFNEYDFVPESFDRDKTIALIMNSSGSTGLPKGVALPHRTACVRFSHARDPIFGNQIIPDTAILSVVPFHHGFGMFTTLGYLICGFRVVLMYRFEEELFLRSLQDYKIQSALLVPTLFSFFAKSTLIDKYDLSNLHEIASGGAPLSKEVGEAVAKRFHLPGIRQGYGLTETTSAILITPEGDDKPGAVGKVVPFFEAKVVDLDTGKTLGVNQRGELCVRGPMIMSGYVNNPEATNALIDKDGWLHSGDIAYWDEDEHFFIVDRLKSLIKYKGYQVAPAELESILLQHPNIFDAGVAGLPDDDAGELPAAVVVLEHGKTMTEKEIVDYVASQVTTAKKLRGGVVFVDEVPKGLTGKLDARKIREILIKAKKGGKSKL
Chain of Cytochrome P450 3A4 (P08684 whole entry): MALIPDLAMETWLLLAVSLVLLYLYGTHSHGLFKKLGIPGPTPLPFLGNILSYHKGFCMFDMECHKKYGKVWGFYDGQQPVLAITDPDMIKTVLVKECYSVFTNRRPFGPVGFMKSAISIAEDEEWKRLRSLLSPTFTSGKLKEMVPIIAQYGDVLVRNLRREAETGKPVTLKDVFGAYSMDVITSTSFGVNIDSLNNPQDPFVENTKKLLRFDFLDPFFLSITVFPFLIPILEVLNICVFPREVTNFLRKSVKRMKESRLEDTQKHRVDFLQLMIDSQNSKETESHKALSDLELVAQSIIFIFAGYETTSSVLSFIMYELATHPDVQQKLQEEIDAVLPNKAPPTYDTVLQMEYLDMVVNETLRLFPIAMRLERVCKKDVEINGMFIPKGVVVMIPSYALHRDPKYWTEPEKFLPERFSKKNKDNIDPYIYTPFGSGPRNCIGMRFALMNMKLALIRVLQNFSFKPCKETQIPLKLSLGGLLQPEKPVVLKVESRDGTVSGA
Chain of Cytochrome P450 2C9 (P11712 whole entry): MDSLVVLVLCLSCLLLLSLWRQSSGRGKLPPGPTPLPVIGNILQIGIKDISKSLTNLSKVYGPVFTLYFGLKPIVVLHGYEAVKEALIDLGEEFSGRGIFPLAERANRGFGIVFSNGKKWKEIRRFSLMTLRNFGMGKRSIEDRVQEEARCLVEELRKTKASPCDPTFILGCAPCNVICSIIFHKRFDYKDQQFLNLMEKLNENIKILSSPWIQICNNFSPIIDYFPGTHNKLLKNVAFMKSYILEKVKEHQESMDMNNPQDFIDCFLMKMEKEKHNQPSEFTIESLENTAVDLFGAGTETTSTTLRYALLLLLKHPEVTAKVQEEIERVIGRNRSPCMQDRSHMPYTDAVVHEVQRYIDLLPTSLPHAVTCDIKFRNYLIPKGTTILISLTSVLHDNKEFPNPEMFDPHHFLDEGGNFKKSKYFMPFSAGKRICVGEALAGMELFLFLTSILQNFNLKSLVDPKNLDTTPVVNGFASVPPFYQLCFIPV

Cn1c(CN2CCCC2)nc2cc(NC(=O)COc3ccccc3)ccc21
EC50 [1]: > 112 µM (not active)
EC50 [2]: > 112 µM (not active)

CN(C)c1ccc(-c2nc(O)c3ccccc3n2)cc1
EC50 [1]: 33.4 µM (active)
EC50 [2]: 8.02 µM (active)

Cc1ccc(C)c(NS(=O)(=O)c2ccc(OCC(=O)NCc3cccnc3)cc2)c1
EC50 (BJ [3]): > 150 µM (not active)
EC50 (BJ [4]): > 150 µM (inconclusive)
AC50 (INS1): 8.78 µM (active)
EC50 [5]: > 150 µM (not active)
EC50 (BJ [6]): 18.1 µM (active)

CCOC(=O)c1c(N)sc(C(=O)N2CCCCCC2)c1C
IC50 [7]: > 50 µM (not active)

COC(=O)c1c(NC(=O)CC2Nc3ccccc3NC2=O)sc(C)c1C (configuration not stated)
EC50 [8]: > 300 µM (not active)
AC50 (Cytochrome P450 2C9): 17.8 µM (inconclusive)
EC50 [9]: > 300 µM (inconclusive)
AC50 (Cytochrome P450 2D6): 25.1 µM (inconclusive)

CC(C)c1cc(NC(=O)CCl)on1
EC50 (BJ [3]): > 150 µM (not active)
EC50 (BJ [4]): > 150 µM (not active)
EC50 [5]: > 150 µM (inconclusive)
EC50 (BJ [6]): > 150 µM (not active)

CC(C)(C)N1C(=O)NC(=O)/C(=C/Nc2ccc3c(c2)CCC3)C1=O
CC50 [10]: > 40 µM (active)

Cc1cc(Cl)ccc1NNC(=O)CCc1ccccc1
CC50 [10]: > 40 µM (active)

Cn1c2[n+](c3ccc(Cl)cc3c1=O)Cc1ccccc1-2
EC50 [1]: > 112 µM (not active)
EC50 [2]: > 112 µM (not active)

COc1ccc(C(C(=O)NC2CCCC2)N(C(=O)c2snc(C(N)=O)c2N)c2cccc(O)c2)cc1 (configuration not stated)
IC50 (H9c2): > 79 µM (inactive)

O=C(c1ccc(C[S+]([O-])Cc2ccc(Cl)cc2)o1)N1CCN(c2ccccc2)CC1 (configuration not stated)
AC50 [11]: > 100 µM (inactive)

COc1ccc(N2CCN(C(=O)c3ccc(C)cc3Cl)CC2)cc1
AC50 [11]: 3.97 µM (active)

Cc1cc(/C=C2\SC(Nc3ccc(F)cc3)=NC2=O)c(C)n1-c1ccc(S(N)(=O)=O)cc1
CC50 [10]: 12 µM (active)

Cc1ccc(/C=C/C(=O)O)cc1S(=O)(=O)N1CCCCC1
EC50 [8]: > 300 µM (not active)
EC50 [1]: > 112 µM (not active)
EC50 [2]: > 112 µM (not active)
EC50 [9]: > 300 µM (not active)

COc1cc(NC(=O)CN2c3ccccc3CC2C)cc(OC)c1OC (configuration not stated)
AC50 [11]: 0.394 µM (active)

COc1ccc(OC)c(NC(=O)CSc2nc(N)c(-c3ccccc3)c(O)n2)c1
EC50 [1]: > 112 µM (not active)
EC50 [2]: > 112 µM (not active)

N#CC1=C(N)Oc2cc(N)ccc2C1c1ccc(F)cc1 (configuration not stated)
AC50 [11]: 2.78 µM (active)

Cc1ccc(C(=O)c2oc3nc(C)cc(C)c3c2N)cc1
EC50 [12]: > 160 µM (inactive)
AC50 (Cytochrome P450 3A4): 891 nM (inconclusive)
AC50 (Cytochrome P450 2D6): 10 µM (inconclusive)
EC50 [13]: > 38 µM (not active)

CCCC1=Nc2cc(C(=O)N3CCC(C(=O)OCC)CC3)ccc2Sc2ccccc21
EC50 (BJ [3]): > 150 µM (not active)
EC50 (BJ [4]): > 150 µM (not active)
EC50 [5]: 126 µM (active)
EC50 (BJ [6]): > 150 µM (not active)

CN(CC(=O)Nc1c(Cl)cccc1Cl)C(=O)Cn1[nH]c(=O)c2ccccc2c1=O
IC50 (H9c2): > 79 µM (inactive)

CCOc1cc2[nH]c(=S)n(CCC(=O)NCc3ccco3)c(=O)c2cc1OCC
EC50 [1]: > 112 µM (not active)
EC50 [2]: > 112 µM (not active)

Cc1c(C2Nc3ccccc3C(=O)N2O)cnn1C (configuration not stated)
IC50 (H9c2): > 79 µM (inactive)

CCCCOC(=O)c1ccc(N=Nc2c(O)nc(O)c(C#N)c2C)cc1
EC50 [8]: > 300 µM (not active)
EC50 [1]: > 112 µM (not active)
EC50 [2]: > 112 µM (not active)
EC50 [9]: > 300 µM (inconclusive)

COc1cc(OC)c(C2C(C#N)=C(N)OC3=C2C(=O)CC(C)C3)cc1OC (configuration not stated)
EC50 [8]: > 300 µM (not active)
EC50 [9]: > 300 µM (not active)

CCN(CC)C(=O)CSc1nnc(-c2cc(OC)cc(OC)c2)o1
IC50 [7]: > 50 µM (not active)

O=C(O)c1ccccc1-n1c2ccccc2c2ccccc21
EC50 [8]: > 300 µM (not active)
EC50 [9]: > 300 µM (not active)

CCOc1cc(NC(=O)CCl)c(OCC)cc1NC(C)=O
CC50 [10]: 25.5 µM (active)

COc1ccc(COc2cc(-c3cccc(OC)c3)nc3ccc(NC(=O)c4ccc(OC)cc4)cc23)cc1
IC50 (H9c2): > 79 µM (inactive)
CC50 [10]: 15.8 µM (active)

Cc1ccc(C(=O)O)cc1-n1c(C)cc(C=O)c1C
EC50 [8]: > 300 µM (not active)
EC50 [9]: > 300 µM (not active)

Cc1ccc2nc(O)c3cc(C(=O)N(C)c4ccc(C)c(C)c4)sc3c2c1
EC50 [1]: > 112 µM (not active)
EC50 [2]: > 112 µM (not active)

CN(C)c1ccnc(Oc2ccc(C(C)(C)C)cc2)c1C#N
IC50 [7]: 4.48 µM (not active)

Cc1cc2ccccc2nc1SCC(=O)N1c2ccccc2CC1C (configuration not stated)
EC50 [1]: 11.9 µM (active)
EC50 [2]: > 112 µM (not active)

CC(=O)c1ccc(-c2ccc(C(=O)N3CCN(c4ccc(F)cc4)CC3)o2)cc1
IC50 [7]: 6.42 µM (not active)

Cc1[nH]c2ccccc2c1CCN(Cc1cccnc1)C(S)=Nc1cccc(F)c1
IC50 [7]: 44.4 µM (not active)
EC50 [14]: > 60 µM (not active)
EC50 [15]: 698 nM (active)

Cc1ccc(C(C)C)c(OCCN=C(S)Nc2cccc3ccccc23)c1
IC50 [7]: 6.63 µM (not active)

C=CC[C@@H](CC(=O)N[C@H](CO)Cc1ccccc1)C(=O)N[C@@H](COC(=O)[C@@H](CC=C)CC(=O)OC(C)(C)C)Cc1ccccc1
IC50 (H9c2): 12.1 µM (active)

O=C(CCc1nc(O)c2ccccc2n1)N1CCN(S(=O)(=O)c2cc(Cl)ccc2Cl)CC1
IC50 (H9c2): > 79 µM (inactive)

Cc1ccc(NC(=O)c2[nH]cnc2C(=O)NCCCCCNC(=O)OC(C)(C)C)cc1
IC50 (H9c2): > 79 µM (inactive)

O=C1N[C@H](Cc2c[nH]c3ccccc23)COC(=O)[C@H](Cc2ccc(F)cc2)C/C=C\C[C@H]1CC(=O)N(CCO)Cc1ccccc1
IC50 (H9c2): > 79 µM (inactive)

C[C@@H](OC(=O)c1[nH]cnc1C(=O)NCc1ccc(CNC(=O)OC(C)(C)C)cc1)c1ccccc1
IC50 (H9c2): > 79 µM (inactive)

COc1cc(C(=O)N/N=C/c2sc(N3CCOCC3)nc2-c2ccccc2)cc(OC)c1OC
IC50 (H9c2): 9.3 µM (active)

Cc1nnc(SCC(=O)N/N=C/c2cn(-c3ccccc3)nc2-c2ccccc2)n1-c1ccccc1
IC50 (H9c2): > 79 µM (inactive)

C/C(=N\Nc1ccc([N+](=O)[O-])cc1)c1cccc(N)c1
CC50 [16]: 22 µM (active)
AC50 (Cytochrome P450 2D6): 17.8 µM (inconclusive)
AC50 [11]: 0.14 µM (active)

CCOCCCn1/c(=N/C(=O)c2cccs2)c(C#N)cc2c(=O)n3cccc(C)c3nc21
EC50 [8]: > 300 µM (not active)
EC50 [9]: > 150 µM (not active)

CC(=O)O/N=C1\C(=O)N(Cc2ccc(C)cc2)c2ccccc21
IC50 [7]: 15.5 µM (not active)

COc1ccc(/C=N/NC(=O)CCc2c(C)n[nH]c2C)cc1O
AC50 [11]: 3.71 µM (active)

CC(C)(O)[C@H]1O[C@H]2CC[C@@]3(C)[C@@](O)(CC[C@H]4Cc5c([nH]c6ccccc56)[C@@]43C)C2=CC1=O [PAXILLINE]
EC50 [8]: 16.7 µM (active)
CC50 [10]: > 40 µM (active)
EC50 [9]: 12.3 µM (active)
